The test system of this assay is Dengue-2 (Strain New Guinea C). The experiment in a line: Viral yield assay in Vero cells. As to conditions: Dengue virus; Vero cells, MOI 0.1, harvested 48 hours post infection; read-out: Activity (anti-dengue 2 viral activity, EC50 class). It counts as cell-based. On the procedure:
Compounds that were active in the primary screen were tested for activity in viral yield assays. […] Vero cells in 12-well plates were infected with dengue-2 virus at a multiplicity of infection (MOI) of 0.1, treated with compound (or DMSO as a control), incubated at 37° C., harvested 48 hours post infection and titered on Vero cells as described above. The EC50 was calculated through ExcelFit. Activities against other serotypes of dengue virus were determined in a similar way.
Broadly, the EC50 is the midpoint of the concentration-response curve. Consider `O=C(Nc1cc(-c2nc3ccccc3s2)ccc1Cl)c1ccccc1[N+](=O)[O-]` [Compound 67, N-(5-Benzothiazol-2-yl-2-chloro-phenyl)-2-nitro-benzamide], for which the EC50 is greater than 25 µM.

Regarding `Cc1ccc(-c2nc3ccccc3s2)cc1NC(=O)c1ccccc1[N+](=O)O` [Compound 68, N-(5-Benzothiazol-2-yl-2-methyl-phenyl)-2-nitro-benzamide], the half-maximal effective concentration (EC50) was greater than 25 µM.

On to `COc1cc(C(=O)Nc2cccc(-c3nc4ccccc4s3)c2C)cc(OC)c1OC` [Compound 69, N-(3-Benzothiazol-2-yl-2-methyl-phenyl)-3,4,5-trimethoxy-benzamide], for which the EC50 is greater than 25 µM.

For `COc1cc(C(=O)Nc2cc(-c3nc4ccccc4s3)ccc2Cl)cc(OC)c1OC` [Compound 70, N-(5-Benzothiazol-2-yl-2-chloro-phenyl)-3,4,5-trimethoxy-benzamide], the EC50 is greater than 25 µM.

Regarding `Cc1ccccc1C(=O)Nc1cc(-c2nc3ccccc3s2)ccc1Cl` [Compound 71, N-(5-Benzothiazol-2-yl-2-chloro-phenyl)-2-methyl-benzamide], the EC50 is greater than 25 µM.

Regarding `O=C(Nc1ccc(O)c(-c2nc3ccccc3s2)c1)c1ccc2c(c1)OCCO2` [Compound 72, 2,3-Dihydro-benzo[1,4]dioxine-6-carboxylic acid (3-benzothiazol-2-yl-4-hydroxy-phenyl)-amide], the EC50 is greater than 25 µM.

For the compound `Cc1c(NC(=O)c2ccc([N+](=O)[O-])cc2Cl)cccc1-c1nc2ccccc2s1` [Compound 73, N-(3-Benzothiazol-2-yl-2-methyl-phenyl)-2-chloro-4-nitro-benzamide], the EC50 was greater than 25 µM.

Regarding `CCCOc1cccc(C(=O)Nc2cc(-c3nc4ccccc4s3)ccc2C)c1` [Compound 74, N-(5-Benzothiazol-2-yl-2-methyl-phenyl)-3-propoxy-benzamide], the EC50 was greater than 25 µM.

Turning to `Cc1ccc(-c2nc3ccccc3s2)cc1NC(=O)c1ccc2c(c1)OCCO2` [Compound 75, 2,3-Dihydro-benzo[1,4]dioxine-6-carboxylic acid (5-benzothiazol-2-yl-2-methyl-phenyl)-amide], the half-maximal effective concentration (EC50) was greater than 25 µM.

For the compound `O=C(Nc1ccc(-c2nc3ccccc3s2)cc1)c1cccc(F)c1` [Compound 76, N-(4-Benzothiazol-2-yl-phenyl)-3-fluoro-benzamide], the EC50 is greater than 25 µM.

Consider `COc1c(Cl)cc(C(=O)Nc2cc(-c3nc4ccccc4s3)ccc2Cl)cc1Cl` [Compound 77, N-(5-Benzothiazol-2-yl-2-chloro-phenyl)-3,5-dichloro-4-methoxy-benzamide], for which the EC50 was greater than 25 µM.

Turning to `Cc1c(C(=O)Nc2ccc(-c3nc4ccccc4s3)c(O)c2)cccc1[N+](=O)[O-]` [Compound 78, N-(4-Benzothiazol-2-yl-3-hydroxy-phenyl)-2-methyl-3-nitro-benzamide], the EC50 was greater than 25 µM.

With `O=C(Nc1ccc(-c2nc3ccccc3s2)cc1)c1c(F)cccc1F` [Compound 79, N-(4-Benzothiazol-2-yl-phenyl)-2,6-difluoro-benzamide], the EC50 was greater than 25 µM.

With `CC(=O)Nc1ccc(C(=O)Nc2ccc(-c3nc4ccc(C)cc4s3)cc2)cc1` [Compound 80, 4-Acetylamino-N-[4-(6-methyl-benzothiazol-2-yl)-phenyl]-benzamide], the EC50 is greater than 25 µM.

Take `COC(=O)c1cc(C(=O)Nc2ccc(-c3nc4ccc(C)cc4s3)cc2)cc([N+](=O)O)c1` [Compound 81, N-[4-(6-Methyl-benzothiazol-2-yl)-phenyl]-5-nitro-isophthalamic acid methyl ester]: the EC50 was greater than 25 µM.

As for `N#Cc1ccc(C(=O)Nc2ccc(Cl)c(-c3nc4ccccc4s3)c2)c(F)c1` [Compound 82, N-(3-Benzothiazol-2-yl-4-chloro-phenyl)-4-cyano-2-fluoro-benzamide], the EC50 was greater than 25 µM.

Take `O=C(Nc1cccc(-c2nc3ccccc3s2)c1)c1ccccc1I` [Compound 83, N-(3-Benzothiazol-2-yl-phenyl)-2-iodo-benzamide]: the EC50 is greater than 25 µM.

Turning to `COc1ccc(C(=O)Nc2cccc(-c3nc4ccccc4s3)c2)cc1[N+](=O)[O-]` [Compound 84, N-(3-Benzothiazol-2-yl-phenyl)-4-methoxy-3-nitro-benzamide], the half-maximal effective concentration (EC50) was greater than 25 µM.

Regarding `Cc1cc(C(=O)Nc2ccc(-c3nc4ccccc4s3)cc2)ccc1[N+](=O)[O-]` [Compound 85, N-(4-Benzothiazol-2-yl-phenyl)-3-methyl-4-nitro-benzamide], the EC50 is greater than 25 µM.

`COc1cc(OC)cc(C(=O)Nc2ccc(Cl)c(-c3nc4ccccc4s3)c2)c1` [Compound 86, N-(3-Benzothiazol-2-yl-4-chloro-phenyl)-3,5-dimethoxy-benzamide]: the EC50 is greater than 25 µM.

Take `Cc1ccc(C(=O)Nc2ccc(-c3nc4ccc(C)cc4s3)cc2)c(Cl)c1` [Compound 87, 2-Chloro-4-methyl-N-[4-(6-methyl-benzothiazol-2-yl)-phenyl]-benzamide]: the EC50 is greater than 25 µM.

Regarding `COc1ccc(C(=O)Nc2ccc(-c3nc4ccccc4s3)cc2)cc1[N+](=O)[O-]` [Compound 88, N-(4-Benzothiazol-2-yl-phenyl)-4-methoxy-3-nitro-benzamide], the EC50 is greater than 25 µM.

As for `Cc1ccc(C(=O)Nc2cccc(-c3nc4ccccc4s3)c2)cc1` [Compound 89, N-(3-Benzothiazol-2-yl-phenyl)-4-methyl-benzamide], the EC50 is greater than 25 µM.

For the compound `O=C(Nc1cccc(-c2nc3ccccc3s2)c1)c1ccc(F)cc1` [Compound 90, N-(3-Benzothiazol-2-yl-phenyl)-4-fluoro-benzamide], the EC50 is greater than 25 µM.

In the case of `COc1ccc(C(=O)Nc2cccc(-c3nc4ccccc4s3)c2)cc1` [Compound 91, N-(3-Benzothiazol-2-yl-phenyl)-4-methoxy-benzamide], the EC50 was greater than 25 µM.

For the compound `Cc1ccccc1C(=O)Nc1cccc(-c2nc3ccccc3s2)c1` [Compound 92, N-(3-Benzothiazol-2-yl-phenyl)-2-methyl-benzamide], the EC50 is greater than 25 µM.

As for `O=C(Nc1ccccc1-c1nc2ccccc2s1)c1ccccc1F` [Compound 93, N-(2-Benzothiazol-2-yl-phenyl)-2-fluoro-benzamide], the EC50 was greater than 25 µM.

With `CCN(CC)S(=O)(=O)c1ccc(C(=O)Nc2ccccc2-c2nc3ccccc3s2)cc1` [Compound 94, N-(2-Benzothiazol-2-yl-phenyl)-4-diethylsulfamoyl-benzamide], the EC50 was greater than 25 µM.

As for `COc1cccc(OC)c1C(=O)Nc1ccc(-c2nc3ccccc3s2)cc1` [Compound 95, N-(4-Benzothiazol-2-yl-phenyl)-2,6-dimethoxy-benzamide], the concentration for a half-maximal effect (EC50) is greater than 25 µM.

With `O=C(Nc1cccc(-c2nc3ccccc3s2)c1)c1ccc(N2CCCC2)c([N+](=O)[O-])c1` [Compound 96, N-(3-Benzothiazol-2-yl-phenyl)-3-nitro-4-pyrrolidin-1-yl-benzamide], the EC50 is greater than 25 µM.

`O=C(Nc1ccccc1-c1nc2ccccc2s1)c1cccc(Cl)c1Cl` [Compound 97, N-(2-Benzothiazol-2-yl-phenyl)-2,3-dichloro-benzamide]: the EC50 was greater than 25 µM.

Consider `O=C(Nc1ccccc1-c1nc2ccccc2s1)c1ccc([N+](=O)[O-])cc1Cl` [Compound 98, N-(2-Benzothiazol-2-yl-phenyl)-2-chloro-4-nitro-benzamide], for which the EC50 is greater than 25 µM.

As for `Cc1ccc(C(=O)Nc2ccccc2-c2nc3ccccc3s2)cc1C` [Compound 99, N-(2-Benzothiazol-2-yl-phenyl)-3,4-dimethyl-benzamide], the EC50 is greater than 25 µM.

Consider `COc1c(Cl)cc(Cl)cc1C(=O)Nc1ccccc1-c1nc2ccccc2s1` [Compound 100, N-(2-Benzothiazol-2-yl-phenyl)-3,5-dichloro-2-methoxy-benzamide], for which the EC50 was greater than 25 µM.

Regarding `CCC(C)Oc1ccc(C(=O)Nc2ccccc2-c2nc3ccccc3s2)cc1` (centres unmarked) [Compound 101, N-(2-Benzothiazol-2-yl-phenyl)-4-sec-butoxy-benzamide], the half-maximal effective concentration (EC50) is greater than 25 µM.

In the case of `O=C(Nc1ccccc1-c1nc2ccccc2s1)c1cc(Br)ccc1Cl` [Compound 102, N-(2-Benzothiazol-2-yl-phenyl)-5-bromo-2-chloro-benzamide], the EC50 was greater than 25 µM.

For the compound `O=C(Nc1ccccc1-c1nc2ccccc2s1)c1cccc(I)c1` [Compound 103, N-(2-Benzothiazol-2-yl-phenyl)-3-iodo-benzamide], the concentration giving a half-maximal response (EC50) was greater than 25 µM.

Regarding `COc1cc(OC)cc(C(=O)Nc2ccccc2-c2nc3ccccc3s2)c1` [Compound 104, N-(2-Benzothiazol-2-yl-phenyl)-3,5-dimethoxy-benzamide], the 50% effective concentration (EC50) is greater than 25 µM.

Consider `O=C(Nc1ccccc1-c1nc2ccccc2s1)c1ccc(-c2ccccc2)cc1` [Compound 105, Biphenyl-4-carboxylic acid (2-benzothiazol-2-yl-phenyl)-amide], for which the concentration for a half-maximal effect (EC50) is greater than 25 µM.

As for `CCCCOc1cccc(C(=O)Nc2ccccc2-c2nc3ccccc3s2)c1` [Compound 106, N-(2-Benzothiazol-2-yl-phenyl)-3-butoxy-benzamide], the EC50 was greater than 25 µM.

Turning to `Cc1ccc(C(=O)Nc2ccccc2-c2nc3ccccc3s2)cc1[N+](=O)[O-]` [Compound 107, N-(2-Benzothiazol-2-yl-phenyl)-4-methyl-3-nitro-benzamide], the 50% effective concentration (EC50) is greater than 25 µM.

Take `COc1c(Cl)cc(C(=O)Nc2ccccc2-c2nc3ccccc3s2)cc1Cl` [Compound 108, N-(2-Benzothiazol-2-yl-phenyl)-3,5-dichloro-4-methoxy-benzamide]: the EC50 is greater than 25 µM.

Regarding `O=C(Nc1ccccc1-c1nc2ccccc2s1)c1cccc2c(Cl)cccc12` [Compound 109, 5-Chloro-naphthalene-1-carboxylic acid (2-benzothiazol-2-yl-phenyl)-amide], the EC50 was greater than 25 µM.

Turning to `O=C(Nc1ccccc1-c1nc2ccccc2s1)c1cccc(F)c1` [Compound 110, N-(2-Benzothiazol-2-yl-phenyl)-3-fluoro-benzamide], the EC50 was greater than 25 µM.

(Values after US8993604B2, “Treatment and prevention of dengue virus infections” (Siga Technologies, Inc., priority 2009, dated 2015).)
